Results as given in patent US4055553A, “(Gly3 -Ala)^1 -somatostatin” (American Home Products Corporation, priority 1975, dated 1977).

Tests used:
growth hormone = assay: arginine-stimulated hormone release in Nembutal-anaesthetised rats, blood assayed for growth hormone; format: in vivo, albino male rats; conditions: saline control 133 ± 15
Experimental: (§1) The in vivo activity of the compounds of this invention was established by subjecting (Gly3 -Ala)^1 -Somatostatin, as a representative compound of this invention, to the following standard test procedure: three groups of nine albino male rats were arranged to provide a control group, a group for observation of Somatostatin activity as the standard and a group for the study of the test compound (Gly3 -Ala)^1 -Somatostatin. Nembutal (50 mg/kg) was injected intraperitoneally into each rat. Fifteen minutes later a subcutaneous injection of the test compound, somatostatin (200 μg/kg) and physiological saline was administered separately to each of the three groups of rats. Ten minutes later 0.5 milliliters of arginine (300 mg/ml, pH 7.2) was injected into the rats heart. The rats were decapitated five minutes later and their blood was collected in Trasylol® -EDTA. Aliquot samples were assayed for growth hormone, glucagon and/or insulin. The compound of this invention, selected as representative of the group of compounds disclosed for test pruposes, was employed in two distinct test procedures at the 100 μg/kg and 300 μg/kg dose levels.

insulin = assay: arginine-stimulated hormone release in Nembutal-anaesthetised rats, blood assayed for insulin; format: in vivo, albino male rats
Experimental: as §1

[1] = system: growth hormone, glucagon and/or insulin; assay: standard in vivo test procedure, overall activity compared with somatostatin; set-up: species or system albino male rats; conditions: at the 100 and 300 μg/kg dose levels
Experimental: as §1

glucagon = assay: arginine-stimulated hormone release in Nembutal-anaesthetised rats, blood assayed for glucagon; format: in vivo, albino male rats
Experimental: as §1

Structure (SMILES)	GH (growth hormone; second test, test compound 300 μg/kg subcutaneous) [ng/mL]	Insulin (insulin; first test, test compound 100 μg/kg subcutaneous, arginine intracardiac 10 min later, blood 5 min after arginine, saline control 199 ± 15) [μ units/ml]	Insulin (insulin; second test, test compound 300 μg/kg subcutaneous, saline control 165 ± 13) [μ units/ml]	activity relative to somatostatin itself [1]	Glucagon (glucagon; first test, test compound 100 μg/kg subcutaneous, arginine intracardiac 10 min later, blood 5 min after arginine, saline control 6.4 ± 1.5) [picograms/ml]	Glucagon (glucagon; second test, test compound 300 μg/kg subcutaneous, saline control 4.2 ± 0.6) [picograms/ml]	GH (growth hormone; second test (run beside the 300 μg/kg group), somatostatin standard 200 μg/kg subcutaneous) [ng/mL]	Insulin (insulin; first test (run beside the 100 μg/kg group), somatostatin standard 200 μg/kg subcutaneous, saline control 199 ± 15) [μ units/ml]	Insulin (insulin; second test (run beside the 300 μg/kg group), somatostatin standard 200 μg/kg subcutaneous, saline control 165 ± 13) [μ units/ml]	Glucagon (glucagon; first test (run beside the 100 μg/kg group), somatostatin standard 200 μg/kg subcutaneous, saline control 6.4 ± 1.5) [picograms/ml]	Glucagon (glucagon; second test (run beside the 300 μg/kg group), somatostatin standard 200 μg/kg subcutaneous, saline control 4.2 ± 0.6) [picograms/ml]
C[C@H](NC(=O)CNC(=O)CNC(=O)CN)C(=O)NCC(=O)N[C@H]1CSSC[C@@H](C(=O)O)NC(=O)[C@H](CO)NC(=O)[C@H]([C@@H](C)O)NC(=O)[C@H](Cc2ccccc2)NC(=O)[C@H]([C@@H](C)O)NC(=O)[C@H](CCCCN)NC(=O)[C@H](Cc2c[nH]c3ccccc23)NC(=O)[C@H](Cc2ccccc2)NC(=O)[C@H](Cc2ccccc2)NC(=O)[C@H](CC(N)=O)NC(=O)[C@H](CCCCN)NC1=O [(Gly3 -Ala)^1 -Somatostatin, glycyl-glycyl-glycyl-L-alanylglycyl-L-cysteinyl-L-lysyl-L-asparaginyl-L-phenylalanyl-L-phenylalanyl-L-tryptophyl-L-lysyl-L-threonyl-L-phenylalanyl-L- threonyl-L-seryl-L-cysteine cyclic (6→.intg.) disulfide, triacetate]	27 ± 7	130 ± 14	104 ± 10	comparable in activity	0.5 ± 0.1	1.4 ± 0.7					
C[C@H](N)C(=O)NCC(=O)N[C@H]1CSSC[C@@H](C(=O)O)NC(=O)[C@H](CO)NC(=O)[C@H]([C@@H](C)O)NC(=O)[C@H](Cc2ccccc2)NC(=O)[C@H]([C@@H](C)O)NC(=O)[C@H](CCCCN)NC(=O)[C@H](Cc2c[nH]c3ccccc23)NC(=O)[C@H](Cc2ccccc2)NC(=O)[C@H](Cc2ccccc2)NC(=O)[C@H](CC(N)=O)NC(=O)[C@H](CCCCN)NC1=O [Somatostatin]							12 ± 2	202 ± 29	115 ± 11	1.5 ± 0.8	1.6 ± 0.9
